Measurements as given in paper PMC11491487 (Nature Communications, 2024).
Where “and” joins values, the source holds several entries; their conditions need not be identical. Equal values may be shown once. Read-outs that look alike come from different tables or passages of the source.

Assays:
chiRyR-I4657M/G4819E = chiRyR-I4657M/G4819E (Oryctolagus cuniculus, UniProt P11716, C4657M/F4564Y/G4819E/L4792S/R4563K); experiment: biochemical; format: biochemical, rabbit; conditions: for [3H]ryanodine binding (B/Bmax): 1 μM TET
chiRyR [1] = target: T1, chiRyR (Oryctolagus cuniculus, UniProt P11716, C4657I/F4564Y/L4792S/R4563K); experiment: biochemical; format: biochemical, rabbit
Sf RyR = Sf RyR (Spodoptera frugiperda, UniProt A0A4P8L6R5); experiment: time-lapse [Ca2+]ER fluorescence assay, HEK293 cells; format: cell-based
chiRyR [2] = target: T1, chiRyR; experiment: cell-based; design: species or system rabbit
rRyR1 = rRyR1 (Oryctolagus cuniculus, UniProt P11716); experiment: time-lapse [Ca2+]ER fluorescence assay, HEK293 cells; format: cell-based, rabbit
[3] = Ca2+-dependent [3H]ryanodine binding, mean ± SD, n=4
[4] = Ca2+-dependent [3H]ryanodine binding, mean ± SD, n=4, read-out: EC50 values for Ca2+

Sequence of Sf RyR (A0A4P8L6R5 1-5109): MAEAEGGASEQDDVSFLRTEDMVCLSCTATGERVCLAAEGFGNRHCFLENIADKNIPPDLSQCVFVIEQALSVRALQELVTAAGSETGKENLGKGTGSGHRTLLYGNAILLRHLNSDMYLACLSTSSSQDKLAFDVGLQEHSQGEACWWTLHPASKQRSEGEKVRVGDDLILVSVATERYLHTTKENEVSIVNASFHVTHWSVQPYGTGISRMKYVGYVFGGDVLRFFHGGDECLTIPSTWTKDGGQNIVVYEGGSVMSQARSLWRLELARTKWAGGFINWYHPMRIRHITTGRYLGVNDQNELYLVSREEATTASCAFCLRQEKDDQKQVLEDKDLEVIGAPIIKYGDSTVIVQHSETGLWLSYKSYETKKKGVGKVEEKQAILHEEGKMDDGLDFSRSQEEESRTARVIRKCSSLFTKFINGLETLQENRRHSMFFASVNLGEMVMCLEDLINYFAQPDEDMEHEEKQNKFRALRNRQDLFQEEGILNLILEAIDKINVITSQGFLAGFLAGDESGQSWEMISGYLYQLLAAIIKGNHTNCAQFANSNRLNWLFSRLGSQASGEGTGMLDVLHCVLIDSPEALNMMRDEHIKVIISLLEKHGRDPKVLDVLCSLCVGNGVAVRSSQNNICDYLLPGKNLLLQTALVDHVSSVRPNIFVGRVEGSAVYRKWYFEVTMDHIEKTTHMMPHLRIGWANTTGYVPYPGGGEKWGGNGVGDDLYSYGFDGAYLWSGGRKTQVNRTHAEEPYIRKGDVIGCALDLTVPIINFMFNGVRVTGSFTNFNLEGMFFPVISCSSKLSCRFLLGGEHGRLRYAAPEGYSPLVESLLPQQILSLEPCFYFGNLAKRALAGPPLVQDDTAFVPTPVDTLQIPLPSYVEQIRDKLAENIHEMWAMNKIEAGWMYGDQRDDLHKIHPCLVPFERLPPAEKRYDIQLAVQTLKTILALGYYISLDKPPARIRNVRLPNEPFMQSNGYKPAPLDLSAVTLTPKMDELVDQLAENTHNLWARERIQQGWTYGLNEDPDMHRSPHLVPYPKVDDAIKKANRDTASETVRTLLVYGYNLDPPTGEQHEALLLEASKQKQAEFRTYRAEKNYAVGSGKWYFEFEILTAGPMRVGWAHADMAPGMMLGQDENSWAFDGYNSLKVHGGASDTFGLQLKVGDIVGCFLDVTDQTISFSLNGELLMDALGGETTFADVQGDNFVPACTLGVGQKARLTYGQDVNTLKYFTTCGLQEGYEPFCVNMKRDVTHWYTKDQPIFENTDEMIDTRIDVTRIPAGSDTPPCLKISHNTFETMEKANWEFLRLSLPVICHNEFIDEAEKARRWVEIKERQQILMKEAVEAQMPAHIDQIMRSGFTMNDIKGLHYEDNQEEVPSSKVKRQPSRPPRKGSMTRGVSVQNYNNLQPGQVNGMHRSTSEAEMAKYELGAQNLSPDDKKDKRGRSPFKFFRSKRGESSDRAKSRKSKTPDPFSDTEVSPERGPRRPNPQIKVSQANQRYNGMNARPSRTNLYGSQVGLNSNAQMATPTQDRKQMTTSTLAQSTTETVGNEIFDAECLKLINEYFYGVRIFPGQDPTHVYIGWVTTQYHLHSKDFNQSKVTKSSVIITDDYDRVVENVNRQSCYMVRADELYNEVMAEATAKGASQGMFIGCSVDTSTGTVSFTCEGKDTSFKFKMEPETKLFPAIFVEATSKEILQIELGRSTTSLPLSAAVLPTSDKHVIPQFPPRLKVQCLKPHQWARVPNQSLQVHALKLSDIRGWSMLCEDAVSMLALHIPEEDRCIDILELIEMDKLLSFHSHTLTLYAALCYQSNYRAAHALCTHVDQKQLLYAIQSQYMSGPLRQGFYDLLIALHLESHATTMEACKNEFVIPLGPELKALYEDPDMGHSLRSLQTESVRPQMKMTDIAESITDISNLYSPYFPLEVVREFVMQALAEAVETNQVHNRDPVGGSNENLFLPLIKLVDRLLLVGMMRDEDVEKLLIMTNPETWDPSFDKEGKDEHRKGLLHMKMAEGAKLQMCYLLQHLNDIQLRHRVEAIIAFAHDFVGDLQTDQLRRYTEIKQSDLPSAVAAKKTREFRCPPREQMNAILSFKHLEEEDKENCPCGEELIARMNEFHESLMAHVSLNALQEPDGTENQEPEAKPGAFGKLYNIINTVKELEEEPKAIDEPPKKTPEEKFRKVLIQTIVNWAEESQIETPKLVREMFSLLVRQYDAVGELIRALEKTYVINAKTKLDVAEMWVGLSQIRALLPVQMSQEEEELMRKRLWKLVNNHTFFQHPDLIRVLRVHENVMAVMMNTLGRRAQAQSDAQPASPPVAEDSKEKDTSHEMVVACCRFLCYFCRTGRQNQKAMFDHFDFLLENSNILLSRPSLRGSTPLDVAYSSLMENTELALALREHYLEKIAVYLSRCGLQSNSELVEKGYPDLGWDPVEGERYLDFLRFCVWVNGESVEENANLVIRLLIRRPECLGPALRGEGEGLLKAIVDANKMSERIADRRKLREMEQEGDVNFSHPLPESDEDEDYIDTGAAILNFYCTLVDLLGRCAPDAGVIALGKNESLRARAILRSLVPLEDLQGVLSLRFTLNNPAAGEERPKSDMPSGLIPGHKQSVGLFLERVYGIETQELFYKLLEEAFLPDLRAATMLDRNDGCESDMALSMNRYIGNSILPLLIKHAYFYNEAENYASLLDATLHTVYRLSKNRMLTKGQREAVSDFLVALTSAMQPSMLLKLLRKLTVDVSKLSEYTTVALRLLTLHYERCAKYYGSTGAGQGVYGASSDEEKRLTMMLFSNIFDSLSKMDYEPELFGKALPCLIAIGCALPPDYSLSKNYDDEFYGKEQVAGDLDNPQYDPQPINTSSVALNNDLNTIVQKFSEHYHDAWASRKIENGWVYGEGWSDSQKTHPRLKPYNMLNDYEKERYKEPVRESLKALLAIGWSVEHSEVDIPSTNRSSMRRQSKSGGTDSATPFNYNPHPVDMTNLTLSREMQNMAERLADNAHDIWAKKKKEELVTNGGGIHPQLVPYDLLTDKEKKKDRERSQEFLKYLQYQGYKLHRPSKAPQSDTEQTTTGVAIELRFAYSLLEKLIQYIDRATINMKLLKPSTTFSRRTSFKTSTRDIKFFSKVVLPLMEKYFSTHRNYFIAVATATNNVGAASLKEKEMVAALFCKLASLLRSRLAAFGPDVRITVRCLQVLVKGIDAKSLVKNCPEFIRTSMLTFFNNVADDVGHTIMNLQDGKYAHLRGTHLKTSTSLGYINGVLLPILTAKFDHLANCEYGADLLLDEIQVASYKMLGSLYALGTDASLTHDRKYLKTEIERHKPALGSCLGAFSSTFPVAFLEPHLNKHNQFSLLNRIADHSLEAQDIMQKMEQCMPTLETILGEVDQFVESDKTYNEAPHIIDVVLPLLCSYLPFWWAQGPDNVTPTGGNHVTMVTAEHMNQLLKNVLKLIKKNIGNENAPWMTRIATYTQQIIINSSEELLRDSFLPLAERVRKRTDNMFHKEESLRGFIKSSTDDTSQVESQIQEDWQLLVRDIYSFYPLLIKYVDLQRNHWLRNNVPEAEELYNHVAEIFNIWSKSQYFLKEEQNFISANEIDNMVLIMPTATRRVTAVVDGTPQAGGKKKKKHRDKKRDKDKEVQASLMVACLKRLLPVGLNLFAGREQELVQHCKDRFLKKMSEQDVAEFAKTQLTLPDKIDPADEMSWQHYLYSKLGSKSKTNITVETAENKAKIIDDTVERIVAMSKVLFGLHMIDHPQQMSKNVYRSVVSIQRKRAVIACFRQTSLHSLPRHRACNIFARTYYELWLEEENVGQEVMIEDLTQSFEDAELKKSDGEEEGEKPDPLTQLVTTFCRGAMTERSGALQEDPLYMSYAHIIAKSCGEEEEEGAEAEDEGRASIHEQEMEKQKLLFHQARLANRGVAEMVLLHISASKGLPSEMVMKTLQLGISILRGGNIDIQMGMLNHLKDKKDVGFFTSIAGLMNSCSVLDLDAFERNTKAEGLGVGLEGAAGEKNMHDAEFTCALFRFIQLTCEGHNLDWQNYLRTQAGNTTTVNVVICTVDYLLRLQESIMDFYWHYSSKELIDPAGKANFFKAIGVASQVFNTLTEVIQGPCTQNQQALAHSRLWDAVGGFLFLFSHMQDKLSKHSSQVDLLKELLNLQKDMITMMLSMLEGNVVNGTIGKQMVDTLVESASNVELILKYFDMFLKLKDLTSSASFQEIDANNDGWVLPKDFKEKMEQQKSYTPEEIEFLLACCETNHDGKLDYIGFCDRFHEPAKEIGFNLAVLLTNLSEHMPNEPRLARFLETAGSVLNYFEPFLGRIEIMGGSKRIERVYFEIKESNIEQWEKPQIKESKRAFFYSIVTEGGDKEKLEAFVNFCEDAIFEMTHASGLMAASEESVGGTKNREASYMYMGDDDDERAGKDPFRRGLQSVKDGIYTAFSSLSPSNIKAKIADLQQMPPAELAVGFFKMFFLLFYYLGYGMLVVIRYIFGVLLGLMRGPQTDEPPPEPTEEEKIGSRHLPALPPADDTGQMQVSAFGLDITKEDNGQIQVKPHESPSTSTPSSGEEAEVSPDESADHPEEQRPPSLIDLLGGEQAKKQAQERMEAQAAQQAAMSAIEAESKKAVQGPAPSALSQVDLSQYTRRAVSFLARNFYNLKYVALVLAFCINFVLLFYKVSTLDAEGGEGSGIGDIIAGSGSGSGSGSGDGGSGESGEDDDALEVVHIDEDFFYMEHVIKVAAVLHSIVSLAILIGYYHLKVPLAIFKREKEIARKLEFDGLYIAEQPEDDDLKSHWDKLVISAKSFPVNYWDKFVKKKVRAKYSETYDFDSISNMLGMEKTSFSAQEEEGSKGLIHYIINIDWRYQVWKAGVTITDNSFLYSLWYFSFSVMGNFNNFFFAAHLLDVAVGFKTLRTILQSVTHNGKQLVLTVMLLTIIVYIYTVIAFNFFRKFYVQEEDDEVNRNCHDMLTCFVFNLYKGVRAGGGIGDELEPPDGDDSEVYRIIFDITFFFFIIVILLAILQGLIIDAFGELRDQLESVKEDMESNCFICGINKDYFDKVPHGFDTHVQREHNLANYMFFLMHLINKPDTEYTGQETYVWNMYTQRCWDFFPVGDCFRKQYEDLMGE

`[Ca+2]` [Ca2+] gave an IC50 (chiRyR-I4657M/G4819E; [3]) of 590 ± 190 µM, an EC50 (chiRyR-I4657M/G4819E; [4]) of 4.4 ± 2.4 µM and an IC50 (chiRyR [1]; [3]) of 670 ± 370 µM. The EC50 (chiRyR [1]; [4]) was 5 ± 1.1 µM.

For `CNC(=O)c1cc(C#N)cc(C)c1NC(=O)c1cc(Cn2nnc(C(F)(F)F)n2)nn1-c1ncccc1Cl` [TET, tetraniliprole], the EC50 (chiRyR-I4657M/G4819E) was 87.8 ± 6.4 µM, the “[3H]ryanodine binding (B/Bmax)” value (chiRyR-I4657M/G4819E; pCa 3.52) was 0.1264 and 0.1119 and 0.1409 and 0.1015 and the “[3H]ryanodine binding (B/Bmax)” value (chiRyR-I4657M/G4819E; pCa 3.89) was 0.1367 and 0.1222 and 0.1015. For the same molecule, the “[3H]ryanodine binding (B/Bmax)” value (chiRyR-I4657M/G4819E; pCa 4.5) was 0.1326 and 0.1367 and 0.1347 and 0.1885, the “[3H]ryanodine binding (B/Bmax)” value (chiRyR-I4657M/G4819E; pCa 5) was 0.172 and 0.0953 and 0.1139 and 0.1243 and the “[3H]ryanodine binding (B/Bmax)” value (chiRyR-I4657M/G4819E; pCa 5.43) was 0.04765 and 0.0663 and 0.05179 and 0.06008. The EC50 (Sf RyR) was 0.175 µM, the F/F0 (Sf RyR; TET 1e-5 uM) was 0.9606 and 0.9752 and 0.9813 and the F/F0 (Sf RyR; TET 0.001 uM) was 1.004 and 1.002 and 1.001. For the same molecule, the F/F0 (Sf RyR; TET 0.01 uM) was 0.3097 and 0.3094 and 0.2868, the F/F0 (Sf RyR; TET 0.1 uM) was 0.2582 and 0.2663 and 0.2776 and the F/F0 (Sf RyR; TET 0.5 uM) was 0.268 and 0.2944 and 0.2596. The F/F0 (Sf RyR; TET 1 uM) was 0.2734 and 0.2934 and 0.2867, the F/F0 (Sf RyR; TET 10 uM) was 0.2774 and 0.2809 and 0.2932 and the F/F0 (Sf RyR; TET 50 uM) was 0.2939 and 0.2698 and 0.3129. For the same molecule, the EC50 (chiRyR [2]) was 0.0461 µM, the F/F0 (chiRyR [2]; TET 1e-5 uM) was 0.9259 and 0.9674 and 0.9677 and the F/F0 (chiRyR [2]; TET 0.001 uM) was 0.7877 and 0.806 and 0.7759. The F/F0 (chiRyR [2]; TET 0.01 uM) was 0.2917 and 0.2699 and 0.2537, the F/F0 (chiRyR [2]; TET 0.1 uM) was 0.2632 and 0.2374 and 0.2313 and the F/F0 (chiRyR [2]; TET 0.5 uM) was 0.2569 and 0.2462 and 0.2329. The F/F0 (chiRyR [2]; TET 1 uM) was 0.2399 and 0.24 and 0.2303, the F/F0 (chiRyR [2]; TET 10 uM) was 0.2639 and 0.2436 and 0.2393 and the F/F0 (chiRyR [2]; TET 50 uM) was 0.3123 and 0.2617 and 0.3022. The F/F0 (rRyR1; TET 0.01 uM) was 0.9832 and 0.9899 and 0.9753, the F/F0 (rRyR1; TET 0.1 uM) was 0.9793 and 0.9852 and 0.9641 and the F/F0 (rRyR1; TET 0.3 uM) was 0.9696 and 0.952 and 0.9539. The F/F0 (rRyR1; TET 1 uM) was 0.9135 and 0.9295 and 0.9254, the F/F0 (rRyR1; TET 3 uM) was 0.8107 and 0.8058 and 0.7756 and the F/F0 (rRyR1; TET 10 uM) was 0.34 and 0.3602 and 0.3556. For the same molecule, the F/F0 (rRyR1; TET 30 uM) was 0.3168 and 0.2562 and 0.2448, the F/F0 (rRyR1; TET 100 uM) was 0.2045 and 0.2471 and 0.2529 and the EC50 (rRyR1; diamide insecticides, n = 3, read-out: EC50) was 7.6 µM. The EC50 (chiRyR [1]) was 0.0111 ± 0.0009 µM, the “promotion of [3H]ryanodine binding” value (chiRyR [1]; 1 μM TET) was “promote” and the “[3H]ryanodine binding (B/Bmax)” value (chiRyR [1]; 1 μM TET, pCa 2.01) was 0.5896 and 0.5427 and 0.6286 and 0.5623. The “[3H]ryanodine binding (B/Bmax)” value (chiRyR [1]; 1 μM TET, pCa 2.54) was 0.4881 and 0.5388 and 0.5232 and 0.4217, the “[3H]ryanodine binding (B/Bmax)” value (chiRyR [1]; 1 μM TET, pCa 3.01) was 0.2889 and 0.3787 and 0.4022 and 0.2616 and the “[3H]ryanodine binding (B/Bmax)” value (chiRyR [1]; 1 μM TET, pCa 3.52) was 0.2967 and 0.3397 and 0.4256 and 0.2811. The “[3H]ryanodine binding (B/Bmax)” value (chiRyR [1]; 1 μM TET, pCa 3.89) was 0.2811 and 0.328 and 0.3319 and 0.2616, the “[3H]ryanodine binding (B/Bmax)” value (chiRyR [1]; 1 μM TET, pCa 4.5) was 0.2889 and 0.2655 and 0.3319 and 0.285 and the “[3H]ryanodine binding (B/Bmax)” value (chiRyR [1]; 1 μM TET, pCa 5) was 0.3163 and 0.2538 and 0.3046 and 0.2694. For the same molecule, the “[3H]ryanodine binding (B/Bmax)” value (chiRyR [1]; 1 μM TET, pCa 5.43) was 0.3436 and 0.285 and 0.2889 and 0.367, the “[3H]ryanodine binding (B/Bmax)” value (chiRyR [1]; 1 μM TET, pCa 6.01) was 0.2772 and 0.2421 and 0.3319 and 0.3085 and the “[3H]ryanodine binding (B/Bmax)” value (chiRyR [1]; 1 μM TET, pCa 6.55) was 0.3358 and 0.246 and 0.3826. For the same molecule, the “[3H]ryanodine binding (B/Bmax)” value (chiRyR [1]; 1 μM TET, pCa 6.98) was 0.2616 and 0.2694 and 0.2382 and 0.2108.
